Here are results for three compounds from patent US11643393B2, “Integrin antagonists” (The General Hospital Corporation, priority 2018, dated 2023).

Assay [1] has as its system human platelets. As to the kind of experiment: Agonist-induced platelet aggregation in whole human blood (impedance, Chrono-Log 700). The conditions noted are these: for IC50: Homo sapiens, Platelet. In kind it is cell-based. The procedure:
(§1) Platelet aggregation and ATP secretion in whole blood were performed in a Chrono-Log model 700 two-channel lumi-aggregation system following the manufacturer's instructions. Blood was drawn directly into 3.2% sodium citrate from healthy volunteers, and blood was used within 3 hours. None of the subjects were taking any medications for at least 10 days prior. For impedance aggregation measurements, 0.5 mL of blood was mixed with 0.5 mL physiologic saline supplemented with inhibitors and incubated at 37° C. for 5 minutes without stirring. Measurements were performed with stirring at 1,200 rpm at 37° C. Values for each data point represent impedance measurements following application of agonist integrated over 5 minutes. Data points for an individual dose curve were serially collected from a single draw and analyzed with SigmaPlot (Systat Software, San Jose, Calif.) using a least-square fit to a logistic curve and the IC50 value determined from the fitted parameter. ATP secretion proceeded similarly except that 0.45 mL of whole blood were added to 0.45 mL of saline supplemented with various concentrations of Hr10 or eptifibatide to produce the desired concentration at 1.0 mL. Following incubation for 5 minutes at 37° C., 100 μL of Chrono-lume reagent was added and aggregation initiated. The luminescence signal was quantified with a non-aggregated sample supplemented with an ATP standard.
Platelet aggregation was measured in whole blood by impedance increase with a Chrono-log model 700 according to the manufacturer's protocol. Citrated whole blood was diluted with an equal volume of physiologic saline (Sigma) and incubated for 5 min at 37° C. without stirring. Inhibitors were added to final concentration and the cuvette stirred at 1,200 rpm. Following establishment of stable baseline, ADP (20 μM) was added and tracings recorded for 6 min. The extent of aggregation was determined as the integrated impedance over 5 min.

The target in assay [2] is T1, αIIbβ3 (Homo sapiens, UniProt P05106+P08514). The assay is described as follows: Displacement of labeled Hr10 binding to inactive or PT-25-activated αIIbβ3-K562 cells (FACS). More on the design: expressed in transfected cells; host or cells: K562. The conditions noted are these: for IC50: Alexa488-labeled Hr10, 1 mM Mg2+ and Ca2+. The procedure: […] Cells were washed, fixed in 2% paraformaldehyde and analyzed by flow cytometry. Ligand binding was expressed as […] of cells in the absence of competitor ligands. Mean and SD from three independent experiments were calculated, and compared using Student's t-test.

The target of assay [3] is T1, αIIbβ3. As to the kind of experiment: Binding of conformation-sensitive mAbs AP5 / LIBS-1 to human platelets. The conditions noted are these: for induction of AP5 epitope expression: tirofiban 150 nM. Format: cell-based.
The target in assay [4] is T1, αIIbβ3. As to the kind of experiment: Displacement of labeled fibrinogen binding to αIIbβ3-K562 cells (flow cytometry). More on the design: expressed in transfected cells; host or cells: K562. The procedure: For ligand binding competition studies, 100 μL of PT-25-activated αIIbpβ3-K562 (1×10^6) were incubated for 30 minutes at RT with serially diluted concentrations of Hr10, hFN10, or eptifibatide in the presence of 0.5 μM Alexa647-conjugated FB. Cells were washed, fixed in 2% paraformaldehyde and analyzed by flow cytometry. Ligand binding was expressed as […] of cells in the absence of competitor ligands. Mean and SD from three independent experiments were calculated, and compared using Student's t-test.

In assay [5] the test system is human platelet-rich plasma (PRP). As to the kind of experiment: Thrombin-induced clot retraction. Format: cell-based. The conditions noted are these: for effect on clot retraction induced by α-thrombin: FIG. 5, tirofiban 1.5 μM, m-tirofiban 15 μM, α-thrombin 0.5 unit/mL; for kinetics of thrombin-induced clot retraction: FIG. 6E, three experiments, vs buffer control. The procedure:
750 μL of Tyrode's buffer supplemented with inhibitor was mixed in a glass culture tube with 200 μL of PRP and 5 μL red blood cells. Clotting was initiated by addition of 50 μL thrombin at 10 units/ml in saline and a sealed Pasteur pipette secured in the tube center. Digital photographs of the experiment were taken at 15-minute intervals over 2 hours. Images were analyzed with ImageJ software to determine the area occupied by the clot and plasma. Plots of the relative areas and linear regressions were performed with SigmaPlot (Systat Software, San Jose, Calif.).
No ligands were added to the control (FIG. 5C) tube. Photographs were taken immediately after thrombin addition (FIG. 5A) and at the end of the reaction (FIG. 5B). Clot retraction around the central glass rod placed in each glass test tube before thrombin addition is shown. 5 μL of red blood cells were added per 1 mL reaction to enhance the color contrast for photography.
Clot retraction normally helps secure hemostasis in vivo as evidenced by increased bleeding in mice with impaired clot retraction (see e.g., Leon et al, Blood 110, 3183-3191, doi: 10.1182/blood-2007-03-080184 (2007)), or in recipients of any of the three anti-αIIbβ3 drugs (see e.g., Tutwiler et al, Biophys. J. 112, 714-723 (2017); Osdoit et al, J. Biol. Chem. 276, 6703-6710 (2001); Haling et al, Blood 117, 1719-1722 (2011)). The effects of Hr10 and eptifibatide on thrombin-induced clot retraction in fresh human platelet-rich plasma (PRP) (see e.g., Tucker et al, Methods Mol. Biol. 788, 101-107 (2012)) were compared. The kinetics of clot retraction were determined from quantification of serial images of the reaction acquired every 15 minutes for the 2-hour duration of the assay. […] Thrombolysis, 15, 71-80 (2003).

The test system of assay [6] is human platelets. As to the kind of experiment: ADP-induced ATP secretion from dense granules in whole blood. Format: cell-based. The conditions noted are these: 1.5 μM; ADP 20 μM; FIG. 11E. The procedure:
as §1

Assay [7] addresses T2, αIIbβ3 on resting platelets (Homo sapiens, UniProt P05106+P08514).
T2 construct: host or cells: resting platelets
The conditions noted are these: Schror & Weber 2003, read-out: affinity of eptifibatide to αIIbβ3 on resting platelets (kD); cited from earlier work.

For assay [8], the system named is vWF^RH/RH NSG mice infused with human platelets. As to the kind of experiment: Cremaster laser-induced arteriolar injury thrombosis in humanized mice. Format: in vivo. The conditions noted are these: eptifibatide 5 μg/mouse, Hr10 60 μg/mouse (equimolar), infused 5 min prior to injury; FIG. 13A.
Procedure: Intravital microscopy was performed as previously described (see e.g., Celi et al, J. Thromb. Haemost. 1, 60-68 (2003); and Neyman et al, Blood, 112, 1101-1108 (2008)). vWF^RH/RHNSG male mice were studied after being anesthetized using sodium pentobarbital (80 mg/kg) injected intraperitoneally. Mice were maintained under anesthesia with the same anesthetic delivered via a catheterized jugular vein at 5 mg/mL throughout the experiment. The cremaster muscle was surgically exteriorized and continuously superfused with a physiological buffer (PBS containing 0.9 mM CaCl2 and 0.49 mM MgCl2) maintained at 37° C. throughout the entire experiment and equilibrated with a mixture of 95% N2 and 5% CO2. Human platelets, 400 million per mouse, were labeled with mouse anti-human CD41 F(ab′)2 (BD Biosciences) conjugated to Alexa Fluor-488 and infused into the jugular vein, followed by Alexa Fluor-647 rat anti-mouse CD41 F(ab′)2 (Thermo Fisher) to detect endogenous mouse platelets (see e.g., Fuentes et al, J. Clin. Invest. 126, 483-494 (2016)). Vascular injury was induced with an SRS NL100 pulsed nitrogen dye laser (440 nm) focused on the vessel wall through the microscope objective. […] Intensity of the fluorescent signal was used to measure incorporated platelets (see e.g., Neyman et al, Blood 112, 1101-1108 (2008). Eight injuries were made in each of four mice in each group.
For assay [9], the system named is human platelets. As to the kind of experiment: ADP-induced surface expression of CD62P and CD63 on platelets. Format: cell-based. The conditions noted are these: 1.5 μM; ADP 20 μM; FIG. 11F. The procedure: αVβ3-K562 cells or transiently transfected HEK293T (0.5×10^6 in 100 μL WB) were incubated in the absence or presence of unlabeled Hr10 or eptifibatide, each at 1.5 μM, for 20 min at RT. Alexa647-labeled AP5 Fab or unlabeled anti-LIBS-1 (each to 10 μg/mL) were added, and cells incubated for an additional 30 min before washing. Alexa647-labeled AP3 was used for normalization of integrin expression. APC-labeled goat anti-mouse Fc-specific antibody was added to anti-LIBS-1-bound cells for an additional 30 min at 4° C., cells washed and processed for flow cytometry. Binding of anti-CD62 and anti-CD63 mAbs to platelets was performed by incubating (20 min, RT) 100 μL of ligand-pretreated 3.2% sodium citrate whole blood with either Alexa488-labeled mAb (at 10 μg/mL) in the presence of 10 μg/mL Alexa647-labeled anti-CD42b. Cells were fixed in 2% paraformaldehyde and CD62 and CD63 expression was analyzed by flow cytometry in the CD42b positive population.

[10] abbreviates: FIG. 6D, M-tirofiban 1.5 μM, human platelets.

Entries after “also recorded” stand apart in the source; their conditions may differ. Like-named read-outs stand apart in the source and are kept apart here. Positions of bridges follow the written chain, without caps; N, C: chain ends. Non-standard residues stand in square brackets, D forms with d. Residues, ends and D or L forms follow the SMILES beside them. hArg = N=C(N)NCCCC[C@H](N)C(=O)O; Mpa = O=C(O)CCS

T1 sequence (P08514 32-887 limits assumed): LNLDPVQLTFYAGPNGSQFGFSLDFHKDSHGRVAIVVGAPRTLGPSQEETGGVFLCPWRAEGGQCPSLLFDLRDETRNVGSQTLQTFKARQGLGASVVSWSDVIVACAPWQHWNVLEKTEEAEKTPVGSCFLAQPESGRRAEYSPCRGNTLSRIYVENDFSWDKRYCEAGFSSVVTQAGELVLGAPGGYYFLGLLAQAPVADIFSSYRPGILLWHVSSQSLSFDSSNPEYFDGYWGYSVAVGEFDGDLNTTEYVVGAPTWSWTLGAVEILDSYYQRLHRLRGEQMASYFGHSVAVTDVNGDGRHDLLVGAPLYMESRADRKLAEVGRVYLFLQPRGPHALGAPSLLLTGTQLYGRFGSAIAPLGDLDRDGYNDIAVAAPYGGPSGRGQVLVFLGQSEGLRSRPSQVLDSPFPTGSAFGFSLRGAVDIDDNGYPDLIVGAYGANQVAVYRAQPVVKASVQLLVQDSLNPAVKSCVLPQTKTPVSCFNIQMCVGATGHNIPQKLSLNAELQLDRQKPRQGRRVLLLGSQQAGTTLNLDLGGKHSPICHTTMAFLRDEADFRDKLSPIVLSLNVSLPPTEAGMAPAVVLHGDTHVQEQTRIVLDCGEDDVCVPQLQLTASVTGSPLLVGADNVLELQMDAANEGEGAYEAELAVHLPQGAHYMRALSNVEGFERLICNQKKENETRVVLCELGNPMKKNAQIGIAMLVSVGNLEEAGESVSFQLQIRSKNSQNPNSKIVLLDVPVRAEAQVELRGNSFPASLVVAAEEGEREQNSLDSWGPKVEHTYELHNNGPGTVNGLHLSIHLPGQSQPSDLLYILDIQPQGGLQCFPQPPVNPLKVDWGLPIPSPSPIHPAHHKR
T1 sequence (P08514 891-1039 partner limits assumed): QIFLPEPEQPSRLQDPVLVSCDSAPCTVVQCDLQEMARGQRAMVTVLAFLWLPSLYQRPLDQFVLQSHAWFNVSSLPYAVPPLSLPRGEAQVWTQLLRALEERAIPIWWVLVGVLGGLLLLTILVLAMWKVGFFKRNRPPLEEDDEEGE
T1 sequence (P05106 27-788): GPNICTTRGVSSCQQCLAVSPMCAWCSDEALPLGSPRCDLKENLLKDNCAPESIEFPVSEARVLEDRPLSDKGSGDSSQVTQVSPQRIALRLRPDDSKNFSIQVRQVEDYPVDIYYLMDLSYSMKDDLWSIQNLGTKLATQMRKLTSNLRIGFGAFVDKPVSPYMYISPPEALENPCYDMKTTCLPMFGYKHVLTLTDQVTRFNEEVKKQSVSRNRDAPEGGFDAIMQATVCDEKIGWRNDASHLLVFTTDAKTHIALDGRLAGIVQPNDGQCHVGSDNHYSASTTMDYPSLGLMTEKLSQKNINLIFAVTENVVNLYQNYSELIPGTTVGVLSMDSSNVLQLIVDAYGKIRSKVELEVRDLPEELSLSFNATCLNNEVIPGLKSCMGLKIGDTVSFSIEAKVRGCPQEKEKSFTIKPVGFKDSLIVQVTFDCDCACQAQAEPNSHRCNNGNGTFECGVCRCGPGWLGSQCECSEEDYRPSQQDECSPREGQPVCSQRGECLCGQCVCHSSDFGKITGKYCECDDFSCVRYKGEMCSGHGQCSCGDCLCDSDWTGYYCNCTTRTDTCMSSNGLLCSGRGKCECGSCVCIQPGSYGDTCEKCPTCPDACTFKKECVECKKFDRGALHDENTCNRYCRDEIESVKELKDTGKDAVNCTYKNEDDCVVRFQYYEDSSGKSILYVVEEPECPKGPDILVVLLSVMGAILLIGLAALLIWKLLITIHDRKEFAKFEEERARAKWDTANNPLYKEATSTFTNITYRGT
T2 sequence (P08514 32-887 limits assumed): as the sequence (P08514 32-887 limits assumed) above
T2 sequence (P08514 891-1039 partner limits assumed): as the sequence (P08514 891-1039 partner limits assumed) above
T2 sequence (P05106 27-788): as the sequence (P05106 27-788) above

As to `O=C(N[C@@H](Cc1ccc(OCCCCC2CCNCC2)cc1)C(=O)O)c1nc2ccccc2o1` [M-tirofiban, OC(═O)[C@H](CC1═CC═C(OCCCCC2CCNCC2)C═C1)NC(═O)C1═NC2═C(O1)C ═CC═C2], the IC50 in the assay with human platelets [1] (read-out: IC50, human platelet aggregation induced by ADP) amounted to 18.5 ± 5.4 nM; at αIIbβ3 [2] (active αIIbβ3, read-out: IC50, displacement of labeled Hr10 binding to mAb PT-25-activated αIIbβ3-K562) it was 247 ± 29.3 nM; at αIIbβ3 [2] (inactive αIIbβ3, read-out: IC50, displacement of labeled Hr10 binding to inactive αIIbβ3-K562) it was 257 ± 88 nM; at αIIbβ3 [4] (FIG. 6B, mean±S.E., n=4 experiments, read-out: IC50, displacement of labeled fibrinogen bound to preactivated αIIbβ3-K562) it was 30.9 ± 3.3 nM. The “reduction in affinity of M-tirofiban vs. tirofiban” value in the assay with human platelets [1] (from fibrinogen displacement and platelet aggregation assays) is given as around 10 fold. In addition, the “binding affinity to inactive vs. active αIIbβ3” value at αIIbβ3 [2] (FIGS. 6F-6G, 12C) is “equivalent binding affinities to inactive and active”. Also, the “activating conformational changes in αIIbβ3 reported by AP5 binding” value at αIIbβ3 [3] (FIG. 4, human platelets in PRP, saturating amounts, absence or presence of 20 μM ADP) was “did not induce the activating shape-shifts”. Further, the “effect on ADP-induced AP5 expression” value at αIIbβ3 [3] (FIG. 6D, M-tirofiban 1.5 μM, ADP 5 μM added before or after) is listed as “suppressed ADP-induced AP5 expression”. Moreover, on αIIbβ3 [3] (setting [10]), the “induction of AP5 epitope expression” value was “did not induce AP5 expression; also recorded: No significant differences were found between B and M”. Moreover, in assay [5], the “effect on clot retraction induced by α-thrombin” value is on record as “reduced clot retraction minimally”. Also, the “kinetics of thrombin-induced clot retraction” value in [5] is “did not; also recorded: not different between buffer control (contr.) and M-tirofiban”.

For the compound `N=C(N)NCCCC[C@@H]1NC(=O)CCSSC[C@@H](C(N)=O)NC(=O)[C@@H]2CCCN2C(=O)[C@H](Cc2c[nH]c3ccccc23)NC(=O)[C@H](CC(=O)O)NC(=O)CNC1=O` [eptifibatide] ([Mpa][hArg]GDWPC-NH2; disulfide 1-7), the “inhibition of ADP-induced ATP secretion from dense granules in whole blood” value in the assay on human platelets [6] amounted to 60±200%. Also, the dissociation constant (Kd) – broadly, the constant that tells how readily two partners part at equilibrium – in [7] was 120 nM. In [8], the “nascent occlusive thrombus formation at sites of laser-induced arteriolar injury” value is “completely preventing nascent occlusive thrombus formation”. For the same compound, the “conformational changes in αIIbβ3 reported by binding of mAbs AP5 and LIBS-1” value on αIIbβ3 [3] (FIG. 8D, 1.5 μM, human platelets, absence or presence of 5 μM ADP) is given as “induced conformational changes in αIIbβ3”. Also, the IC50 on αIIbβ3 [4] (FIG. 8C, preactivated αIIbβ3-K562, mean S.E., n=3, read-out: IC50, inhibition of binding of Alexa647-labeled soluble FB to activated αIIbβ3) came to 73.2 ± 7 nM. Further, the “kinetics of thrombin-induced clot retraction vs. buffer” value in assay [5] (FIGS. 12A-12B, fresh human PRP, 2-hour assay) was “clot retraction was significantly reduced vs buffer; also recorded: significantly blocked clot retraction”. Also, the “ADP-induced secretion from platelet α-granules (CD62P expression) and lysosomes (CD63 expression)” value with human platelets [9] is on record as “did not significantly alter”.

Consider `CCCCS(=O)(=O)N[C@@H](Cc1ccc(OCCCCC2CCNCC2)cc1)C(=O)O` [tirofiban], for which the IC50 is 1.41 ± 0.23 nM with human platelets [1] (FIG. 6C, ADP 20 μM, mean±S.E., n=5, three donors, read-out: IC50, human platelet aggregation induced by ADP) and 1.5 to 2 nM with human platelets [1] (summary of FIGS. 6B-6C, ADP 20 μM, read-out: Prevention of ADP-induced human platelet aggregation, concentration range). Further, the “induction of AP5 epitope expression” value at αIIbβ3 [3] (setting [10]) is “induced expression of the AP5 epitope”. In [5], the “effect on clot retraction induced by α-thrombin” value is given as “completely blocked clot retraction”. Further, the “kinetics of thrombin-induced clot retraction” value in assay [5] is recorded as “effectively blocked thrombin-induced clot retraction”.
